# According to patent publication EP4650362A1, “NEUROPROTECTIVE PSD-95 POLYPEPTIDE INHIBITOR AND USE THEREOF” (Beijing Tuo Jie Biopharmaceutical Co. Ltd., priority 2023, dated 2024):
# Values joined by “and” are separate entries in the source; they are usually repeats but may differ in a detail not shown here. Equal entries are not always repeated. Where two headings read alike, the source gives them in different places. Non-standard residues stand in square brackets, D forms with d. Residues, ends and D or L forms follow the SMILES beside them. No end group written: not given here. Tle = CC(C)(C)[C@H](N)C(=O)O; Dab = NCC[C@H](N)C(=O)O; Aib = CC(C)(N)C(=O)O
# What was measured:
# rabbit whole blood = experiment: hemolysis risk test in rabbit whole blood; type: cell-based; conditions: concentration range of 1 to 50 µM
# Method: Preparation of red blood cell suspension: 100 µL of fresh whole blood was collected, and 900 µL of 1× PBS solution was then added. The mixture was shaken on a plate shaker at 30 rpm for 5 min and then centrifuged at 1000 g for 5 min, and the supernatant was discarded. The above washing step was repeated until the supernatant no longer appeared red. The suspension was set aside for later use.
# Preparation of test polypeptide solutions: An appropriate amount of 1× PBS solution was added to a powdered polypeptide, and the polypeptide was dissolved to form a standard stock solution. The stock solution was then diluted with 1× PBS to form test solutions with concentrations of 1, 3, 10, 30, 100, and 300 µg/mL, and two replicate wells were set for each concentration. Meanwhile, blank 1× PBS was used as a negative control, and a 1× PBS solution containing 0.1% Triton X-100 was used as a positive control.
# Incubation: A test solution (500 µL) was added to the red blood cell suspension, and then the mixture was well shaken on a plate shaker at 30 rpm for 5 min, incubated at 37 °C for 1 h, and centrifuged at 1000 g for 5 min.
# 100 µL of the supernatant was transferred to a single well of a microplate. The absorbance at 540 nm was measured using a SpectraMax M5 microplate reader, and data analysis was performed using GraphPad Prism 9. The hemolysis rate (%) was calculated using the formula: (test sample absorbance - negative control absorbance) / (positive control absorbance - negative control absorbance) × 100%. A rate of less than 5% indicates the absence of hemolysis, while a rate of greater than 5% indicates the presence of hemolysis. Table 3. Testing of the hemolysis risk of the polypeptide compound
# A method similar to that in section 3.3.2 was adopted, with the difference being that this test example used fresh rabbit whole blood instead.
# human PSD95-PDZ2 = biological target: T1, human PSD95-PDZ2 (Homo sapiens, UniProt P78352); experiment: competitive ELISA, affinity for human PSD95-PDZ2; type: binding
# T1 construct: PDZ2 (155-249, the Flag-His-Avitag-TEVsite tag is italicized); made in house; host or cells: E. coli BL21-DE3 (PET vector)
# Source text: The objective of this test example was to determine the affinities of polypeptide compounds for human PSD95-PDZ2 using competitive ELISAs.
# The amino acid sequence of PDZ2 protein was designed using human PSD95 (Uniprot Entry: P78352) as a template for PDZ: PDZ2 (155-249, the Flag-His-Avitag-TEVsite tag is italicized and was subsequently used for purification and biotinylation): […]
# […] (SEQ ID NO. 62). The PDZ2 gene was constructed onto a PET expression vector, and induced expression was performed using BL21-DE3 E. coli cells under conditions of 37 °C and 1 mM IPTG 4 h. Then centrifugation was performed at 10,000 g at 4 °C for 10 min, and the cell pellets were collected, resuspended in 1× PBS solution, and then lysed using a homogenizer. The lysate was centrifuged at high speed, and the supernatant was collected and filtered through a 0.45 µm membrane. A Ni-Sepharose affinity column was equilibrated with 5 column volumes of a 20 mM phosphate buffer (pH 8.0). The sample was centrifuged at high speed to remove impurities and loaded onto the column for binding. The column was rinsed with the 20 mM phosphate buffer until the A280 reading dropped to the baseline. Gradient elution was then performed with the 20 mM phosphate buffer and 0-500 mM imidazole. A protein was collected, and whether it was the target protein was determined. The purified sample described above was buffer-exchanged into 1× PBS solution, and the resulting solution was concentrated to a volume of 2 mL and further purified using a Superdex200 gel chromatography column (GE) equilibrated with 1× PBS. The target peak was collected and aliquoted for later use.
# PSD95-PDZ2 (the tag was removed by TEV enzyme) was diluted with 1× PBS buffer to 1 µg/mL, added to a 96-well microplate (Corning, 9018, 25/box 96-well clear flat bottom plate) at 100 µL/well, and left to stand overnight at 4 °C for 16-20 h. After the liquid was discarded, the plate was washed three times with PBST (pH 7.4, 0.05% Tween-20) buffer, and a 4% BSA blocking solution diluted with PBST buffer was then added (300 µL/well). The plate was blocked by incubation in an incubator at 37 °C for 1 h. After the blocking was complete, the blocking solution was discarded, and the plate was washed three times with PBST buffer. Biotin-NA-1, at a constant concentration of 0.3 µM, and the test compounds, having a starting concentration of 100 µM and serially diluted ten-fold with PBS buffer to seven concentrations (100, 10, 1, 0.1, 0.01, 0.001, 0.0001, and 0 µM), were then added, and the plate was incubated in an incubator at 37 °C for 1 h. After the incubation was complete, the reaction solutions in the microplate were discarded, and the plate was washed three times with PBST. 100 µL of HRP-SA secondary antibody (diluted at 1:2000) was added to each well, and the plate was incubated at 37 °C for 1 h. After the plate was washed three times with PBST, 100 µL of TMB chromogenic substrate was added. The plate was incubated at room temperature for 1-3 min, and 100 µL of 1 M sulfuric acid was added to stop the reaction.
# The absorbance at 450 nm was measured using a SpectraMax M5 microplate reader, and non-linear fitting was performed using GraphPad Prism 9 to calculate the binding IC50 values of the test compounds to PSD95-PDZ2 protein.
# [1] = plasma stability test with alteplase added, rat plasma; type: in vitro ADME; conditions: Rat plasma + rt-PA (50 µg/mL alteplase), 25 µM
# Method: Solution preparation: An appropriate amount of a test polypeptide compound was weighed out and dissolved in an appropriate amount of 1× PBS to form a 1 mM test solution. NA-1 and NoNO42 were used as positive drugs, propantheline bromide was used as a human plasma test control, and lovastatin was used as a rat plasma test control. Plasma stability test: 12.5 µL of the 1 mM test solution was added to a 495 µL pre-incubated plasma sample. […] For each incubation time, two parallel samples were set. Subsequently, 200 µL of stop solution was added to stop the incubation, and the mixtures were vortexed for 5 min. Then the mixtures were centrifuged at 10,000 rpm at 4 °C for 10 min to remove the protein in the sample, and 70 µL of the supernatant was transferred to a new 96-well plate (70 µL of water was added to each well beforehand) and well mixed. Plasma stability test with alteplase added: An appropriate amount of solid alteplase was weighed out, and an appropriate volume of water was added. The mixture was vortexed to dissolve alteplase, forming a 1 mg/mL solution of alteplase. 250 µL of the 1 mg/mL solution of alteplase was added to 4750 µL of plasma to form a plasma sample containing 50 µg/mL alteplase. The other procedures were the same as in the aforementioned "plasma stability test", with the difference being that the plasma sample containing 50 µg/mL alteplase was used instead of plasma. […] Sample pretreatment: […] LC-MS analysis: […] (2) Mass-spectrometric conditions: The mass spectrometry analysis used an electrospray ionization (ESI) source, a positive ion analysis mode, and a multi-reaction monitoring (MRM) scan mode. […] The plasma stability of the polypeptide compound
# [2] = competitive ELISA against 0.3 µM Biotin-NA-1, error of this test within three times, read-out: IC50
Molecule,hemolysis rates (rabbit whole blood),IC50 (human PSD95-PDZ2) [nM],IC50 (human PSD95-PDZ2; [2]) [nM],Relative remaining compound content (%) ([1]; 0min (standard 100%)),Relative remaining compound content (%) ([1]; 10min),Relative remaining compound content (%) ([1]; 20min),Relative remaining compound content (%) ([1]; 30min),Relative remaining compound content (%) ([1]; 60min),Relative remaining compound content (%) ([1]; 120min)
"CC[C@H](C)[C@H](NC(=O)[C@H](CO)NC(=O)[C@H](CO)NC(=O)[C@H](CC(C)C)NC(=O)[C@@H](CCCCN)NC(=O)[C@H](CCCNC(=N)N)NC(=O)[C@H](CCCNC(=N)N)NC(=O)[C@@H](CCCNC(=N)N)NC(=O)[C@H](CCC(N)=O)NC(=O)[C@@H](CCCNC(=N)N)NC(=O)[C@H](CCCNC(=N)N)NC(=O)[C@H](CCCCN)NC(=O)[C@H](CCCCN)NC(=O)[C@@H](CCCNC(=N)N)NC(=O)CNC(=O)[C@@H](N)Cc1ccc(O)cc1)C(=O)N[C@@H](CCC(=O)O)C(=O)N[C@@H](CO)C(=O)N[C@@H](CC(=O)O)C(=O)N[C@H](C(=O)O)C(C)C [NoNO42, YGrKKRrQrRRkLSSIESDV, reference compound] (H-YG[dR]KKR[dR]Q[dR]RR[dK]LSSIESDV-OH)",less than 5%,917,,,,,,,
"CC(C)[C@H](NC(=O)[C@H](CC(=O)O)NC(=O)[C@@H](NC(=O)[C@@H](NC(=O)[C@@H](NC(=O)[C@@H](NC(=O)[C@H](CCN)NC(=O)C(C)(C)NC(=O)CNC(=O)[C@@H](CCCNC(=N)N)NC(=O)[C@@H](CCCNC(=N)N)NC(=O)[C@@H](CCCNC(=N)N)NC(=O)[C@@H](CCC(N)=O)NC(=O)[C@@H](CCCNC(=N)N)NC(=O)[C@@H](CCCNC(=N)N)NC(=O)[C@@H](CCCCN)NC(=O)[C@@H](CCCCN)NC(=O)[C@@H](CCCNC(=N)N)NC(=O)CNC(=O)[C@H](N)Cc1ccc(O)cc1)[C@@H](C)O)C(C)(C)C)C(C)(C)C)[C@@H](C)O)C(=O)O [Polypeptide compound 14, y-G-r-k-k-r-r-q-r-r-r-G-Aib-Dab-T-Tle-Tle-T-D-V] (H-[dY]G[dR][dK][dK][dR][dR][dQ][dR][dR][dR]G[Aib][Dab]T[Tle][Tle]TDV-OH)",less than 5%,,713,100.0,95.6%,90.4,104.9,105.4,96.7
"CC(C)[C@H](NC(=O)[C@H](CC(=O)O)NC(=O)[C@@H](NC(=O)[C@@H](NC(=O)[C@@H](NC(=O)[C@@H](NC(=O)[C@H](CCN)NC(=O)C(C)(C)NC(=O)CNC(=O)[C@@H](CCCNC(=N)N)NC(=O)[C@H](CCCNC(=N)N)NC(=O)[C@H](CCCNC(=N)N)NC(=O)[C@H](CCC(N)=O)NC(=O)[C@@H](CCCNC(=N)N)NC(=O)[C@H](CCCNC(=N)N)NC(=O)[C@H](CCCCN)NC(=O)[C@H](CCCCN)NC(=O)[C@H](N)CCCNC(=N)N)[C@@H](C)O)C(C)(C)C)C(C)(C)C)[C@@H](C)O)C(=O)O [Polypeptide compound 22, r-K-K-R-r-Q-R-R-r-G-Aib-Dab-T-Tle-Tle-T-D-V] (H-[dR]KKR[dR]QRR[dR]G[Aib][Dab]T[Tle][Tle]TDV-OH)",less than 5%,,881,100.0,83.4%,72.2,48.2,13.7,8.1
"YGRKKRRQRRRKLSSIESDV [NA-1, YGRKKRRQR RRKLSSIESDV, reference compound]",less than 5%,909,,100.0,6.3% and 14.0%,2.2,0.8,,
